Entries after “also recorded” stand apart in the source; their conditions may differ. Counter-ions that a name gives are not always drawn. Like-named read-outs stand apart in the source and are kept apart here.
Tests used:
[1] = test system: MERS-CoV; experiment: microbe, parasite or virus in culture; type: cell-based, MERS-CoV strain Hu/Jordan-N3/2012; conditions: for EC50: read-out: EC50 against MERS-CoV
[2] = test system: MERS-CoV (Jordan); experiment: microbe, parasite or virus in culture; type: cell-based; conditions: Middle East respiratory syndrome-related coronavirus, Vero C1008, read-out: EC50 for MERS-CoV (virus production, TCID50)
[3] = test system: SARS-CoV; experiment: microbe, parasite or virus in culture; type: cell-based; conditions: Severe acute respiratory syndrome coronavirus, Vero C1008, read-out: EC50 for SARS-CoV (virus production, TCID50)
[4] = test system: SARS-CoV; conditions: mouse, in vivo; cited from earlier work
[5] = test system: Vero E6 cells
[6] = test system: MERS-S pseudoparticles; type: cell-based, MERS-CoV
[7] = test system: MERS-CoV; type: cell-based
[8] = test system: SARS-CoV; type: cell-based
[9] = test system: MERS-CoV; experiment: microbe, parasite or virus in culture; type: cell-based; conditions: Middle East respiratory syndrome-related coronavirus, Vero C1008, read-out: IC50 value for MERS-CoV (TCID50 assay)
[10] = test system: SARS-CoV; experiment: microbe, parasite or virus in culture; type: cell-based; conditions: Severe acute respiratory syndrome coronavirus, Vero C1008, read-out: IC50 value for SARS-CoV (TCID50 assay)
[11] = test system: MERS-CoV; conditions: cited from earlier work
[12] = test system: SARS-CoV; conditions: cited from earlier work
[13] = Middle East respiratory syndrome-related coronavirus, Vero C1008, 48 h, read-out: MERS-CoV IC50
[14] = Middle East respiratory syndrome-related coronavirus, Vero
[15] = Middle East respiratory syndrome-related coronavirus, Vero C1008, 48 h, read-out: IC50 against MERS-CoV

`CCN(CC)Cc1cc(Nc2ccnc3cc(Cl)ccc23)ccc1O` gave an IC50 [1, 13] of 6.21 µM.

With `CC[C@H]1CN2CCc3cc(OC)c(OC)cc3[C@@H]2C[C@@H]1C[C@H]1NCCc2cc(OC)c(OC)cc21` the IC50 [1, 13] was 0.014 µM.

`COc1ccc(C[C@H]2NC[C@H](O)[C@H]2OC(C)=O)cc1` [Anisomycin] showed an IC50 ([1]; read-out: MERS-CoV IC50) of 0.003 µM.

Work on `CCN(CC)CCCC(C)Nc1ccnc2cc(Cl)ccc12` (centres unmarked) [Chloroquine Phosphate] yielded an IC50 [1, 13] of 6.28 µM, an EC50 [1, 14] of 9.51 µM and an EC50 [1] of 6.28 µM. For the same molecule, the EC50 [2] was 18.4 µM, the EC50 [3] was 6.43 µM and the “efficacy in reducing SARS-CoV virus titers” value [4] was “did not show efficacy”.

In the case of `CN(C)CCOC(C)(c1ccccc1)c1ccc(Cl)cc1` (centres unmarked) [Chlorphenoxamine hydrochloride], the IC50 [1, 13] is reported as 12.6 µM.

For `CN(C)CCCN1c2ccccc2Sc2ccc(Cl)cc21` [Chlorpromazine hydrochloride], the IC50 [1, 15] was 5.76 to 12.9 µM, the IC50 [1, 13] was 9.51 µM and the EC50 [2] was 19.4 µM. The EC50 [3] was 4.86 µM and the toxicity [5] was “low toxicity”.

`O=C1NCN(c2ccccc2)C12CCN(CCCC(c1ccc(F)cc1)c1ccc(F)cc1)CC2` [Fluspirilene] showed an IC50 [1, 13] of 7.48 µM.

In the case of `Nc1ccn([C@@H]2O[C@H](CO)[C@@H](O)C2(F)F)c(=O)n1` [Gemcitabine hydrochloride], the IC50 [1, 13] is reported as 1.22 µM, the EC50 [1, 14] is reported as 1.2 µM and the “CCF2 signal (fluorescence)” value [6] is reported as 95 % of control. The toxicity [5] was “low toxicity”.

`COC(=O)C[C@](O)(CCCC(C)(C)O)C(=O)O[C@@H]1C(OC)=C[C@]23CCCN2CCc2cc4c(cc2[C@H]13)OCO4` [Homoharringtonine] showed an IC50 [1, 13] of 0.0718 µM.

In the case of `CCN(CCO)CCCC(C)Nc1ccnc2cc(Cl)ccc12` (centres unmarked) [Hydroxychloroquine sulfate], the IC50 [1, 13] is reported as 8.28 µM.

For `Cc1ccc(NC(=O)c2ccc(CN3CCN(C)CC3)cc2)cc1Nc1nccc(-c2cccnc2)n1` [Imatinib mesylate], the “inhibition of virus growth, MERS-CoV” value [7] was “significant inhibition of virus growth; also recorded: little inhibition of either virus”, the “inhibition of virus growth, SARS-CoV” value [8] was “significant inhibition of virus growth; also recorded: little inhibition of either virus” and the “CCF2 signal (fluorescence)” value [6] was 7.8 % of control. The toxicity [5] was “low toxicity”.

With `OC(c1cc(C(F)(F)F)nc2c(C(F)(F)F)cccc12)C1CCCCN1` (centres unmarked) [Mefloquine] the IC50 [1, 13] was 7.42 µM.

With `Cc1cn(-c2cc(NC(=O)c3ccc(C)c(Nc4nccc(-c5cccnc5)n4)c3)cc(C(F)(F)F)c2)cn1` [Nilotinib] the “activity against MERS-CoV (in words)” value [1] was “does not significantly inhibit MERS-CoV”, the “maximum inhibition of MERS-CoV” value [1] was 39% and the IC50 [1, 13] was 5.47 µM. The IC50 [9] was 9.53 µM, the IC50 [10] was 2.3 µM and the “inhibition of virus growth, SARS-CoV” value [8] was “significant inhibition of virus growth; also recorded: little inhibition of either virus”. The toxicity [5] was “low toxicity”.

Molecule `CC(CN1c2ccccc2Sc2ccccc21)N(C)C` (centres unmarked) [Promethazine hydrochloride] has an IC50 [1, 13] of 11.8 µM.

In the case of `CC(C)N1CCN(c2ccc(OCC3COC(Cn4cncn4)(c4ccc(Cl)cc4Cl)O3)cc2)CC1` (centres unmarked) [Terconazole], the IC50 [1, 13] is reported as 12.2 µM.

With `CCSc1ccc2c(c1)N(CCCN1CCN(C)CC1)c1ccccc1S2` [Thiethylperazine maleate] the IC50 [1, 13] was 7.87 µM.

Molecule `CN1CCN(CC/C=C2/c3ccccc3Sc3ccc(S(=O)(=O)N(C)C)cc32)CC1` [Thiothixene] has an IC50 [1, 13] of 9.3 µM.

For `CN(C)CCOc1ccc(/C(=C(/CCCl)c2ccccc2)c2ccccc2)cc1` [Toremifene citrate], the IC50 [1, 13] was 12.9 µM, the EC50 [1, 14] was 12.9 µM and the toxicity [5] was “low toxicity”.

For `CN(C)CCCN1c2ccccc2Sc2ccc(C(F)(F)F)cc21` [Triflupromazine hydrochloride], the IC50 [1, 15] was 5.76 to 12.9 µM, the IC50 [1, 13] was 5.76 µM and the IC50 ([1]; read-out: IC50 against MERS-CoV, hydrochloride) was 5.76 µM. The toxicity [5] was “low toxicity”.

In the case of `CCN(CC)CCOc1ccc(C(O)(Cc2ccc(Cl)cc2)c2ccc(C)cc2)cc1` (centres unmarked) [Triparanol], the IC50 [1, 13] is reported as 5.28 µM.

With `Cc1nc(Nc2ncc(C(=O)Nc3c(C)cccc3Cl)s2)cc(N2CCN(CCO)CC2)n1` [dasatinib] the toxicity [5] was “low toxicity”.

In the case of `COc1c(C)c2c(c(O)c1C/C=C(\C)CCC(=O)O)C(=O)OC2` [mycophenolic acid (MPA), mycophenolic acid], the “effect against MERS-CoV infection in vitro” value [11] is given as “highly effective” and the “activity against SARS-CoV infection” value [12] is given as “little activity”.

For `COC(=O)Nc1nc2ccc(C(=O)c3cccs3)cc2[nH]1` [nocodazole], the “activity against MERS-CoV (in words)” value [1] was “high activity”.
